Assay results taken from patent publication US20250122218A1, “MODULATORS OF CYSTIC FIBROSIS TRANSMEMBRANE CONDUCTANCE REGULATOR” (Vertex Pharmaceuticals Incorporated, priority 2022, published 2025).

The compounds below were run against T1, CFTR in F508del/MF-HBE cells (Homo sapiens, UniProt P13569, DEL508-508) (assay: Ussing chamber assay of CFTR-mediated short-circuit currents (identification of potentiator compounds)). Details: potentiator incubated 18-24 hours at 37° C. in combination with 10 μM corrector, in the presence of 20% human serum, CFTR-mediated ISC.
T1 construct: human bronchial epithelial (HBE) cells derived from CF subjects heterozygous for F508del and a minimal function CFTR mutation; endogenous in cells; host or cells: primary human bronchial epithelial cells from CF subjects (F508del/MF-HBE)
T1 sequence (P13569 with tags, fused parts or gaps DEL508-508): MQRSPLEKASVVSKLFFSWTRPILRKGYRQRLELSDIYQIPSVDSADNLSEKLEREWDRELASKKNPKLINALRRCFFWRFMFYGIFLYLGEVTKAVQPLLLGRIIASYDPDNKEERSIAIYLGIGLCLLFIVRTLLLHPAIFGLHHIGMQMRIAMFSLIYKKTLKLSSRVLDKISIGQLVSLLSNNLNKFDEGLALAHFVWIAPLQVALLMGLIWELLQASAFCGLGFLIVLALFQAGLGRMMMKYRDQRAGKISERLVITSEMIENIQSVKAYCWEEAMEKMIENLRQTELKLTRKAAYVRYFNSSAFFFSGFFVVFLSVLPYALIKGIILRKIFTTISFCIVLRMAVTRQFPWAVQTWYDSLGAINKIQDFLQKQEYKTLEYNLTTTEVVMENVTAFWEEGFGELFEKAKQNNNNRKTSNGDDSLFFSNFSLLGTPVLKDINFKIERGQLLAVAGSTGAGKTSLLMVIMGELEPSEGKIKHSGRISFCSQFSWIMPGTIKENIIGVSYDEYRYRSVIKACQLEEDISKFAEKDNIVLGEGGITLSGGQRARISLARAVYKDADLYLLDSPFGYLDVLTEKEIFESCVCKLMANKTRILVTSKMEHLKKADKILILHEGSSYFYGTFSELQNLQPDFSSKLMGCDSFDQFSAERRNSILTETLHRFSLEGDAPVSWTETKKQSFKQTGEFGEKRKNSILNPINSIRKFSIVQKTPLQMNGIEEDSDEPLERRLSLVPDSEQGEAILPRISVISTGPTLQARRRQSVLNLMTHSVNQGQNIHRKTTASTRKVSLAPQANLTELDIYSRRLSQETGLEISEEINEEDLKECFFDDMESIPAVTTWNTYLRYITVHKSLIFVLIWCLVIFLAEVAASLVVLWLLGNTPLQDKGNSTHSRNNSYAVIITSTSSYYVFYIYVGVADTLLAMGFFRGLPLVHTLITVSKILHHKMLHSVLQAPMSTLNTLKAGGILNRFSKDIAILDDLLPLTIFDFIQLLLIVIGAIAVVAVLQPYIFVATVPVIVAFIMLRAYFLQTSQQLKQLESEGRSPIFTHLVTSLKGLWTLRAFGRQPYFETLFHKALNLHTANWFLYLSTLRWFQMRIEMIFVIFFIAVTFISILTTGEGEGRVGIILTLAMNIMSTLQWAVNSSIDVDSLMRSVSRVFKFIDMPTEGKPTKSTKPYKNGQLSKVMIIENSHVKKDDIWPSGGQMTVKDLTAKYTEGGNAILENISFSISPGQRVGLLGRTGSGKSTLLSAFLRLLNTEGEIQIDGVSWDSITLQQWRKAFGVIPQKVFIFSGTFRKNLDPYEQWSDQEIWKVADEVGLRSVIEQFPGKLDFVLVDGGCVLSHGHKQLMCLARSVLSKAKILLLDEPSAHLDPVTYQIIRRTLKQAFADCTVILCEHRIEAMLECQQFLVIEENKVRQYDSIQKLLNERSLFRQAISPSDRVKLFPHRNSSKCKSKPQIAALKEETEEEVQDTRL
Type: cell-based
How it was run: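 Short-circuit current was measured in Ussing chambers at 37° C, Vhold 0 mV, 30 μM apical amiloride. CFTR current was defined as the forskolin (20 μM) response relative to the current remaining after BPO/GlyH-101/inhibitor 172 (20 μM each). Before recording, cells had 18-24 h exposure to test potentiators with 10 μM corrector compound in 20% human serum.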

Structure (SMILES)	EC50 [nM]
Nc1cc(C(F)(F)F)c2nc1-c1nnc(o1)[C@@](O)(C(F)(F)F)CCCCCN(Cc1ccnc(OC(F)F)c1)C2=O [Compound 269, (6R)-17-amino-12-[[2-(difluoromethoxy)-4-pyridyl]methyl]-6-hydroxy-6,15-bis(trifluoromethyl)-19-oxa-3,4,12,18-tetrazatricyclo [12.3.1.12,5] nonadeca-1(18),2,4,14,16-pentaen-13-one]	> 1000
Nc1cc(C(F)(F)F)c2nc1-c1nnc(o1)[C@@](O)(C(F)(F)F)CCCCCNC2=O [Compound 188, (6R)-17-amino-6-hydroxy-6,15-bis(trifluoromethyl)-19-oxa-3,4,12,18-tetrazatricyclo[12.3.1.12,5]nonadeca-1(18),2,4,14,16-pentaen-13-one]	< 500
N#Cc1cc(N)c2nc1C(=O)N(C1CC(F)(F)C1)CCCCCC(O)(C(F)(F)F)C1=NN=C2O1 (single isomer, unassigned) [Compound 197, 17-amino-12-(3,3-difluorocyclobutyl)-6-hydroxy-13-oxo-6-(trifluoromethyl)-19-oxa-3,4,12,18-tetrazatricyclo[12.3.1.12,5]nonadeca-1(18),2,4,14,16-pentaene-15-carbonitrile]	> 1000
Nc1cc(C(F)(F)F)c2nc1-c1nnc(o1)[C@@](O)(C(F)(F)F)CCCCCN(C1CCOCC1)C2=O [Compound 98, (6R)-17-Amino-6-hydroxy-12-tetrahydropyran-4-yl-6,15-bis (trifluoromethyl)-19-oxa-3,4,12,18-tetrazatricyclo [12.3.1.12,5] nonadeca-1(18),2,4,14,1 6-pentaen-13-one]	< 500
Nc1cc(C(F)(F)F)c2nc1-c1nnc(o1)C(F)(C(F)(F)F)CCCCCCC2=O (single isomer, unassigned) [Compound 71, 17-amino-6-fluoro-6,15-bis(trifluoromethyl)-19-oxa-3,4,18-triazatricyclo[12.3.1.12,5]nonadeca-1(18),2,4,14,16-pentaen-13-one]	> 1000
Nc1cc(C(F)(F)F)c2nc1-c1nnc(o1)[C@@](O)(C(F)(F)F)CCCCCN(C1CCS(=O)(=O)CC1)C2=O [Compound 102, (6R)-17-Amino-12-(1,1-dioxothian-4-yl)-6-hydroxy-6,15-bis (trifluoromethyl)-19-oxa-3,4,12,18-tetrazatricyclo [12.3.1.12,5] nonadeca-1(18),2,4,14,1 6-pentaen-13-one]	> 1000
C[C@H](c1ccc(F)cc1)N1CCCCC[C@](O)(C(F)(F)F)C2=NN=C(O2)c2nc(c(C(F)(F)F)cc2N)C1=O [Compound 105, (6R)-17-Amino-12-[(1R)-1-(4-fluorophenyl)ethyl]-6-hydroxy-6,15-bis (trifluoromethyl)-19-oxa-3,4,12,18-tetrazatricyclo [12.3.1.12,5] nonadeca-1(18),2,4,14,1 6-pentaen-13-one]	< 500
CC1(N2CCCCC[C@](O)(C(F)(F)F)C3=NN=C(O3)c3nc(c(C(F)(F)F)cc3N)C2=O)CC(F)(F)C1 [Compound 96, (6R)-17-Amino-12-(3,3-difluoro-1-methyl-cyclobutyl)-6-hydroxy-6,15-bis (trifluoromethyl)-19-oxa-3,4,12,18-tetrazatricyclo [12.3.1.12,5] nonadeca-1(18),2,4,14,1 6-pentaen-13-one]	< 500
Nc1cc(C(F)(F)F)c2nc1-c1nnc(o1)[C@@](O)(C(F)(F)F)CCCCCN(Cc1cccc(C3(C(F)(F)F)CC3)c1)C2=O [Compound 220, (6R)-17-amino-6-hydroxy-6,15-bis(trifluoromethyl)-12-[[3-[1-(trifluoromethyl)cyclopropyl]phenyl]methyl]-19-oxa-3,4,12,18-tetrazatricyclo [12.3.1.12,5] nonadeca-1(18),2,4,14,16-pentaen-13-one]	< 500
Nc1cc(C(F)(F)F)c2nc1-c1nnc(o1)C(O)(C(F)(F)F)c1cc(ccc1F)CCCN(C1CC(F)(F)C1)C2=O (single isomer, unassigned) [Compound 203, 20-amino-15-(3,3-difluorocyclobutyl)-8-fluoro-6-hydroxy-6,18-bis(trifluoromethyl)-23-oxa-3,4,15,21-tetraazatetracyclo [15.3.1.12,5.17,11] tricosa 1(21),2,4,7(22),8,10, 17,19-octaen-16-one]	< 500
CC(C)(C)N1CCCCC[C@](O)(C(F)(F)F)C2=NN=C(O2)c2nc(c(C(F)(F)F)cc2N)C1=O [Compound 85, (6R)-17-Amino-12-tert-butyl-6-hydroxy-6,15-bis(trifluoromethyl)-19-oxa-3,4,12,18-tetrazatricyclo [12.3.1.12,5] nonadeca-1(18),2,4,14,1 6-pentaen-13-one]	< 500
N#CC1CCCCc2cccc(c2)C(O)(C(F)(F)F)C2=NN=C(O2)c2nc1c(C(F)(F)F)cc2N (stereo not drawn) [Compound 64, 20-amino-6-hydroxy-6,18-bis(trifluoromethyl)-23-oxa-3,4,21-triazatetracyclo[15.3.1.12,5.17,11]tricosa-1(21),2,4,7,9,11(22),17,19-octaene-16-carbonitrile]	< 500
Nc1cc(C(F)(F)F)c2nc1-c1nnc(o1)[C@@](O)(C(F)(F)F)CCCCCN(Cc1ccc(C3(C(F)(F)F)CC3)cc1)C2=O [Compound 151]	< 500
Nc1cc(C(F)(F)F)c2nc1-c1nnc(o1)[C@@](O)(C(F)(F)F)CCCCCN(C1CCC(F)(F)CC1)C2=O [Compound 91, (6R)-17-Amino-12-(4,4-difluorocyclohexyl)-6-hydroxy-6,15-bis (trifluoromethyl)-19-oxa-3,4,12,18-tetrazatricyclo [12.3.1.12,5] nonadeca-1(18),2,4,14,1 6-pentaen-13-one]	< 500
Nc1cc(C(F)(F)F)c2nc1-c1nnc(o1)[C@@](O)(C(F)(F)F)CCCCCN(C1(C3CC3)CC1)C2=O [Compound 253, (6R)-17-amino-12-(1-cyclopropylcyclo-propyl)-6-hydroxy-6,15-bis(trifluoromethyl)-19-oxa-3,4,12,18-tetrazatricyclo [12.3.1.12,5] nonadeca-1(18),2,4,14,16-pentaen-13-one]	< 500
CC1(C)CC(N2CCCCC[C@](O)(C(F)(F)F)C3=NN=C(O3)c3nc(c(C(F)(F)F)cc3N)C2=O)C1 [Compound 93, (6R)-17-Amino-12-(3,3-dimethylcyclobutyl)-6-hydroxy-6,15-bis (trifluoromethyl)-19-oxa-3,4,12,18-tetrazatricyclo [12.3.1.12,5] nonadeca-1(18),2,4,14,1 6-pentaen-13-one]	< 500
CC(C)N1CCCCCC(O)(C(F)(F)F)C2=NN=C(O2)c2nc(c(C(F)(F)F)cc2N)C1=O (single isomer, unassigned) [Compound 204, 17-amino-6-hydroxy-12-isopropyl-6,15-bis(trifluoromethyl)-19-oxa-3,4,12,18-tetrazatricyclo [12.3.1.12,5] nonadeca-1(18),2,4,14,16-pentaen-13-one]	< 500
COC1CCCCc2ccc(F)c(c2)C(O)(C(F)(F)F)C2=NN=C(O2)c2nc1c(C(F)(F)F)cc2N (stereo not drawn) [Compound 61, 20-Amino-8-fluoro-16-methoxy-6,18-bis(trifluoromethyl)-23-oxa-3,4,21-triazatetracyclo[15.3.1.12,5.17,11]tricosa-1(21),2,4,7(22),8,10,17,19-octaen-6-ol]	< 500
Nc1cc(C(F)(F)F)c2nc1-c1nnc(o1)C(O)(C(F)(F)F)CCCCNC2=O (single isomer, unassigned) [Compound 250, 16-amino-6-hydroxy-6,14-bis(trifluoromethyl)-18-oxa-3,4,11,17-tetrazatricyclo [11.3.1.12,5] octadeca-1(17),2,4,13,15-pentaen-12-one]	> 1000
Nc1cc(C(F)(F)F)c2nc1-c1nnc(o1)[C@@](O)(C(F)(F)F)CCCCCN(Cc1ccc(C(F)(F)F)cc1)C2=O [Compound 135, (6R)-17-amino-6-hydroxy-6,15-bis (trifluoromethyl)-12-[[4-(trifluoromethyl)phenyl]methyl]-19-oxa-3,4,12,18-tetrazatricyclo [12.3.1.12,5] nonadeca-1(18),2,4,14,1 6-pentaen-13-one]	< 500
N#CC1CCCCc2ccc(F)c(c2)C(O)(C(F)(F)F)C2=NN=C(O2)c2nc1c(C(F)(F)F)cc2N (stereo not drawn) [Compound 69, 20-Amino-8-fluoro-6-hydroxy-6,18-bis(trifluoromethyl)-23-oxa-3,4,21-triazatetracyclo[15.3.1.12,5.17,11]tricosa-1(21),2,4,7,9,11(22),17,19-octaene-16-carbonitrile]	< 500
Nc1cc(C(F)(F)F)c2nc1-c1nnc(o1)[C@@](O)(C(F)(F)F)CCCCCN(Cc1ccc(OC(F)(F)C(F)F)cc1)C2=O [Compound 161, (6R)-17-amino-6-hydroxy-12-[[4-(1,1,2,2-tetrafluoroethoxy)phenyl]methyl]-6,15-bis (trifluoromethyl)-19-oxa-3,4,12,18-tetrazatricyclo [12.3.1.12,5] nonadeca-1(18),2,4,14,1 6-pentaen-13-one]	< 500
CC(C)(C)c1ccc(CN2CCCCC[C@](O)(C(F)(F)F)C3=NN=C(O3)c3nc(c(C(F)(F)F)cc3N)C2=O)cn1 [Compound 119, (6R)-17-Amino-12-[(6-tert-butyl-3-pyridyl)methyl]-6-hydroxy-6,15-bis (trifluoromethyl)-19-oxa-3,4,12,18-tetrazatricyclo [12.3.1.12,5] nonadeca-1(18),2,4,14,1 6-pentaen-13-one]	< 500
CC(C)(C)c1cccc(CN2CCCCC[C@](O)(C(F)(F)F)C3=NN=C(O3)c3nc(c(C(F)(F)F)cc3N)C2=O)n1 [Compound 184, (6R)-17-amino-12-[(6-tert-butyl-2-pyridyl)methyl]-6-hydroxy-6,15-bis (trifluoromethyl)-19-oxa-3,4,12,18-tetrazatricyclo [12.3.1.12,5] nonadeca-1(18),2,4,14,1 6-pentaen-13-one]	< 500
